{
  "source": "PubChem BioAssay AID1996",
  "data": [
    {"details": "buffer; pH 7.4; 200.0 µM", "units": {"solubility kinetic": "µg/mL"}, "values": [
      {"smiles": "CCN(CC)CCNS(=O)(=O)c1ccc2c3c(cccc13)C(=O)N2", "solubility kinetic": "> 52.1"},
      {"smiles": "COc1ccc(CNc2nccs2)cc1", "solubility kinetic": 19.5},
      {"smiles": "COc1ccc(NC(=O)c2cc([N+](=O)[O-])ccc2O)cc1", "solubility kinetic": "> 43.2"},
      {"smiles": "Cc1nc2sc(C(=O)c3ccccc3)c(N)c2c(C)c1C", "solubility kinetic": "< 0.3"},
      {"smiles": "CC(C)N(C(=O)Nc1ccc2nccnc2c1)C(C)C", "solubility kinetic": 2.3},
      {"smiles": "CCCC1(C(=O)OCC)NC(c2ccco2)C2C(=O)N(C)C(=O)C21", "note": "(stereo not drawn)", "solubility kinetic": 46.2},
      {"smiles": "Cc1ccc(S(=O)(=O)N2CCN(c3ncnc4sccc34)CC2)cc1", "solubility kinetic": 17.5},
      {"smiles": "NC(=O)c1ccc(N=C2C(=O)Nc3ccc([N+](=O)[O-])cc32)cc1", "solubility kinetic": 13.1},
      {"smiles": "CN(Cc1nc2ccccc2[nH]1)Cc1nc(CC2CC2)no1", "solubility kinetic": "> 44.6"},
      {"smiles": "CC(C)(C)c1ccc(-c2ncccc2O)cc1.Cl", "solubility kinetic": 10.6},
      {"smiles": "O=C(NCc1ccc2c(c1)OCO2)Nc1cccc(Cl)c1", "solubility kinetic": 1.3},
      {"smiles": "O=C(NCC1CCCCC1)c1ccc(Br)o1", "solubility kinetic": "> 42.9"},
      {"smiles": "S=C(Nc1ccccc1)N1CCC(Cc2ccccc2)CC1", "solubility kinetic": 14.5},
      {"smiles": "CC1CCCC(NC(=O)COC(=O)COc2cccc(F)c2)C1C", "note": "(stereo not drawn)", "solubility kinetic": 20.2},
      {"smiles": "COc1cc(-c2nnc(SCC(=O)Nc3ccc(C(=O)O)cc3)o2)cc(OC)c1OC", "solubility kinetic": "> 66.8"},
      {"smiles": "CCOc1ncccc1C(=O)Nc1ccc(F)cc1", "solubility kinetic": 13.7},
      {"smiles": "COc1cc(-n2c(C)nc3cc(C(=O)O)ccc32)cc(OC)c1OC", "solubility kinetic": "> 51.4"},
      {"smiles": "Nc1cc(C(=O)OCC(=O)NCCCc2ccccc2)ccc1Cl", "solubility kinetic": 10.5},
      {"smiles": "C=CCn1c(-c2ccccc2)nc(=S)c2c1CCCC2", "solubility kinetic": "> 42.4"},
      {"smiles": "CCc1nc(Nc2ccc(O)cc2)c2oc3ccccc3c2n1.Cl", "solubility kinetic": 1.2},
      {"smiles": "O=C1CSCC(=O)N1c1ncc(C(F)(F)F)cc1Cl", "solubility kinetic": 42},
      {"smiles": "O=[N+]([O-])c1c(NCCCO)cc(N2CCCCCC2)c2nonc12", "solubility kinetic": 28.6},
      {"smiles": "Cc1cc(C)n2nc(SCC(=O)N3CCCC(C)C3)nc2n1", "note": "(stereo not drawn)", "solubility kinetic": "> 47.9"},
      {"smiles": "CCc1cccc2c(C(=O)CN3C(=O)NC4(CCCCC4)C3=O)c[nH]c12", "solubility kinetic": 7},
      {"smiles": "COc1ccccc1C(=O)c1nc2ccccc2n1C", "solubility kinetic": 19.7},
      {"smiles": "CCOc1cc(C(=O)OCC(=O)Nc2cccc(S(=O)(=O)NC3=NCCCCC3)c2)cc(OCC)c1OCC", "solubility kinetic": 24.2},
      {"smiles": "CCCCNc1cc(C(=O)O)cc(S(N)(=O)=O)c1Oc1ccccc1", "solubility kinetic": "> 54.7"},
      {"smiles": "Cc1cc(-n2c(C)cc(C(=O)CSc3ccccn3)c2C)no1", "solubility kinetic": 33.4},
      {"smiles": "CC(=O)Nc1cccc(NC(=O)COc2ccccc2C)c1", "solubility kinetic": "> 44.8"},
      {"smiles": "N#Cc1ccccc1OCC(=O)OCC(=O)c1c[nH]c2ccccc12", "solubility kinetic": 6.4},
      {"smiles": "CC(C)(C)NC(=O)c1cccc2c1-c1ccccc1C2=O", "solubility kinetic": 29.8},
      {"smiles": "Cc1oc(S(=O)(=O)N2CCOCC2)cc1C(=O)Nc1ccc(F)cc1", "solubility kinetic": 5.4},
      {"smiles": "Cc1ccc(NC(=O)CN(C)C(=O)COc2cccc3cccnc23)cc1", "solubility kinetic": 52.4},
      {"smiles": "CC(=O)CC(=O)Nc1ccc(C(N)=O)cc1", "solubility kinetic": "> 33"},
      {"smiles": "CCOC(=O)CN1C(=O)C(=O)N(Cc2c(Cl)cccc2Cl)C1=O", "solubility kinetic": 30.6},
      {"smiles": "O=CN1CCN(S(=O)(=O)c2ccc(Cl)c(C(=O)O)c2)CC1", "solubility kinetic": "> 49.9"},
      {"smiles": "COc1ccc2nc(NC(=O)c3ccccc3[N+](=O)[O-])sc2c1", "solubility kinetic": 3},
      {"smiles": "CN(Cc1ccccc1)C(=O)c1cc(=O)[nH]c2ccccc12", "solubility kinetic": "> 43.9"},
      {"smiles": "CC(C)(C)N1C(=O)c2ccc(C(=O)Nc3ccc(O)cc3)cc2C1=O", "solubility kinetic": 17.4},
      {"smiles": "O=C(O)CC[C@@H](C(=O)O)N1C(=O)c2ccccc2C1=O", "solubility kinetic": "> 41.6"},
      {"smiles": "CN=C1S/C(=C\\c2ccc(O)c(Br)c2)C(=O)N1C", "solubility kinetic": 16.7},
      {"smiles": "CCOC(=O)c1cnc(SC)nc1NCCOC", "solubility kinetic": "> 40.7"},
      {"smiles": "CC1(C)Cc2c(sc(NC(=O)Cc3ccccc3)c2C#N)CO1", "solubility kinetic": 0.4},
      {"smiles": "Cc1ccc(OCCC(=O)Nc2ccc3c(c2)OCO3)cc1", "solubility kinetic": 14.8},
      {"smiles": "Cc1ccc(C(=O)NC(=S)N(C)C2CCCCC2)cc1Br", "solubility kinetic": 1.1},
      {"smiles": "Cc1cc(C(=O)N2CCCC(C(=O)c3cc(F)ccc3F)C2)c(C)o1", "note": "(stereo not drawn)", "solubility kinetic": 42.5},
      {"smiles": "O=C1C2CCCCC2C(=O)N1c1nccs1", "note": "(stereo not drawn)", "solubility kinetic": "> 35.4"},
      {"smiles": "Cc1ccc(C(C)C)cc1S(=O)(=O)NCc1ccccn1", "solubility kinetic": "> 45.7"},
      {"smiles": "O=C(/C=C/c1ccccc1)Nc1nc(-c2ccncc2)cs1", "solubility kinetic": 0.9},
      {"smiles": "Cc1ccccc1C(=O)NCC(=O)c1ccccc1", "solubility kinetic": "> 38"},
      {"smiles": "CN(C)S(=O)(=O)c1cccc(C(=O)NCCCn2ccnc2)c1", "solubility kinetic": "> 50.5"},
      {"smiles": "CC(=O)N1CCN(c2ccc(S(=O)(=O)N3CCCCC3)cc2[N+](=O)[O-])CC1", "solubility kinetic": "> 59.5"},
      {"smiles": "CC1Cc2ccccc2N1Cc1ccc([N+](=O)[O-])cc1", "note": "(stereo not drawn)", "solubility kinetic": "< 0.3"},
      {"smiles": "CCNCCNc1ccc([N+](=O)[O-])c2cccnc12", "solubility kinetic": 36.4},
      {"smiles": "COc1cccc2cc(C(=O)OCC(=O)NC3CCCC(C)C3C)c(=O)oc12", "note": "(stereo not drawn)", "solubility kinetic": 13.7},
      {"smiles": "Cc1ccc(C(=O)NC(=S)N(C)C2CCCCC2)cc1", "solubility kinetic": 9.9},
      {"smiles": "N#C/C(=C\\Nc1ccc(Cl)cc1)S(=O)(=O)c1ccccn1", "solubility kinetic": 8.7},
      {"smiles": "CCn1c(=O)cc(N2CCN(C(=O)c3ccco3)CC2)[nH]c1=O", "solubility kinetic": "> 47.7"}
    ]}
  ]
}
